Laboratory results from PubChem BioAssay AID1919015 (Molecular Pharmacology Branch, DTP, NCI, 2023).

System: OVCAR-5 complex spheroids with HUVEC/MSC, viability, % test/control
Assay: Anticancer human tumor OVCAR-5 cell line growth inhibition [AhR];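 further: spheroids exposed to compounds for 7 days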;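 on viability, T/C: 100% = DMSO vehicle control wells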
Conditions: for IC50: curve of first compound; for viability, T/C: stronger effect = lower value
In short: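 Spheroids combined tumor cells with HUVEC endothelial cells and human MSCs as stroma. AhR antagonists were paired with standard or investigational drugs, each dosed in half-log steps down from near clinical Cmax, or from 10 microM where Cmax was unknown.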

[1] = second compound 0.1 µM, first compound 0.0316 µM
[2] = second compound 0.1 µM, first compound 0.1 µM
[3] = second compound 0.1 µM, first compound 0.316 µM
[4] = second compound 0.1 µM, first compound 1 µM
[5] = second compound 0.1 µM, first compound 3.16 µM
[6] = second compound 0.1 µM, first compound 10 µM
[7] = second compound 0.316 µM, first compound 0.0316 µM
[8] = second compound 0.316 µM, first compound 0.1 µM
[9] = second compound 0.316 µM, first compound 0.316 µM
[10] = second compound 0.316 µM, first compound 1 µM
[11] = second compound 0.316 µM, first compound 3.16 µM
[12] = second compound 0.316 µM, first compound 10 µM
[13] = second compound 1 µM, first compound 0.0316 µM
[14] = second compound 1 µM, first compound 0.1 µM
[15] = second compound 1 µM, first compound 0.316 µM
[16] = second compound 1 µM, first compound 1 µM
[17] = second compound 1 µM, first compound 3.16 µM
[18] = second compound 1 µM, first compound 10 µM
[19] = second compound 3.16 µM, first compound 0.0316 µM
[20] = second compound 3.16 µM, first compound 0.1 µM
[21] = second compound 3.16 µM, first compound 0.316 µM
[22] = second compound 3.16 µM, first compound 1 µM
[23] = second compound 3.16 µM, first compound 3.16 µM
[24] = second compound 3.16 µM, first compound 10 µM
[25] = second compound 10 µM, first compound 0.0316 µM
[26] = second compound 10 µM, first compound 0.1 µM
[27] = second compound 10 µM, first compound 0.316 µM
[28] = second compound 10 µM, first compound 1 µM
[29] = second compound 10 µM, first compound 3.16 µM
[30] = second compound 10 µM, first compound 10 µM

SMILES | IC50 (second compound 0.1 µM) | IC50 (second compound 0.316 µM) | IC50 (second compound 1 µM) | IC50 (second compound 3.16 µM) | IC50 (second compound 10 µM) | viability, T/C [1] | viability, T/C [2] | viability, T/C [3] | viability, T/C [4] | viability, T/C [5] | viability, T/C [6] | viability, T/C [7] | viability, T/C [8] | viability, T/C [9] | viability, T/C [10] | viability, T/C [11] | viability, T/C [12] | viability, T/C [13] | viability, T/C [14] | viability, T/C [15] | also measured
Nc1ccccc1NC(=O)c1ccc(CNC(=O)OCc2cccnc2)cc1 + Cc1cncc(-c2nc(NCCc3c[nH]c4ccccc34)c3ncn(C(C)C)c3n2)c1 | 834 nM | 731 nM | 724 nM | 549 nM | < 31.6 nM | 86% | 84.7% | 69.5% | 47.4% | 19.9% | 9.54% | 86% | 79.5% | 66.8% | 44.3% | 20.1% | 7.96% | 80.4% | 77.2% | 68.8% | viability, T/C [16]: 42.8%; viability, T/C [17]: 16.6%; viability, T/C [18]: 7.92%; viability, T/C [19]: 71.2%; viability, T/C [20]: 71.4%; viability, T/C [21]: 62.7%; viability, T/C [22]: 36%; viability, T/C [23]: 13.5%; viability, T/C [24]: 6.41%; viability, T/C [25]: 10.4%; viability, T/C [26]: 10.3%; viability, T/C [27]: 13.1%; viability, T/C [28]: 14.3%; viability, T/C [29]: 2.83%; viability, T/C [30]: 0.51%
O=C(C=Cc1cccc(S(=O)(=O)Nc2ccccc2)c1)NO + Cc1cncc(-c2nc(NCCc3c[nH]c4ccccc34)c3ncn(C(C)C)c3n2)c1 | 1130 nM | 1010 nM | 1130 nM | 891 nM | < 31.6 nM | 95.8% | 87.4% | 70.6% | 52.4% | 30.4% | 7.81% | 95.1% | 88.1% | 70.2% | 52.1% | 24.9% | 6.95% | 87.9% | 88.3% | 70% | viability, T/C [16]: 55.3%; viability, T/C [17]: 25.1%; viability, T/C [18]: 6.35%; viability, T/C [19]: 79.4%; viability, T/C [20]: 75.8%; viability, T/C [21]: 66%; viability, T/C [22]: 49%; viability, T/C [23]: 23.1%; viability, T/C [24]: 5.52%; viability, T/C [25]: 23.3%; viability, T/C [26]: 26.7%; viability, T/C [27]: 23.4%; viability, T/C [28]: 24.9%; viability, T/C [29]: 16.4%; viability, T/C [30]: 2.82%
O=C(c1cc(Cc2n[nH]c(=O)c3ccccc23)ccc1F)N1CCN(C(=O)C2CC2)CC1 + Cc1cncc(-c2nc(NCCc3c[nH]c4ccccc34)c3ncn(C(C)C)c3n2)c1 | > 10000 nM | > 10000 nM | > 10000 nM | > 10000 nM | < 31.6 nM | 93.8% | 97.7% | 93.7% | 87.5% | 91.5% | 86.8% | 93.9% | 98.7% | 95.4% | 89.9% | 84.3% | 83.7% | 84.5% | 87.7% | 91.6% | viability, T/C [16]: 87%; viability, T/C [17]: 86.2%; viability, T/C [18]: 77.3%; viability, T/C [19]: 78.2%; viability, T/C [20]: 77.8%; viability, T/C [21]: 75.2%; viability, T/C [22]: 73.2%; viability, T/C [23]: 71.8%; viability, T/C [24]: 64.8%; viability, T/C [25]: 14.8%; viability, T/C [26]: 12.9%; viability, T/C [27]: 15%; viability, T/C [28]: 12%; viability, T/C [29]: 13.7%; viability, T/C [30]: 13.1%
